{"source": "patent US9963442B2", "about": "“Pyridones as herbicides” (E I DU PONT DE NEMOURS AND COMPANY, priority 2014, dated 2018)", "format_in_all_cases": "in vivo", "key": {"[1]": {"tested_on": "barnyardgrass (Echinochloa crus-galli)", "experiment": "Test B flooded paddy test", "parameters": "key: 0 = no effect, 100 = complete control", "conditions": "Flood, 250 g ai/ha applied to paddy water at 2-leaf stage; visually evaluated after 13 to 15 days; scale 0 (no effect) to 100 (complete control)", "method_in_brief": "(§1)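 Scoring: visual, compared with untreated controls, 0 = no effect through 100 = complete control, taken 13 to 15 days after treatment in the greenhouse. Compounds had been added to paddy water over soil flooded 3 cm deep at the plants' 2-leaf stage.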"}, "[2]": {"tested_on": "ducksalad (Heteranthera limosa)", "experiment": "Test B flooded paddy test", "parameters": "key: 0 = no effect, 100 = complete control", "conditions": "Flood, 250 g ai/ha applied to paddy water at 2-leaf stage; visually evaluated after 13 to 15 days; scale 0 (no effect) to 100 (complete control)", "method_in_brief": "as §1"}, "[3]": {"tested_on": "blackgrass (Alopecurus myosuroides)", "experiment": "Test C preemergence", "conditions": "scale 0 to 100, 0 is no effect, 100 is complete control", "text": "(§2) Seeds of plant species selected from blackgrass (Alopecurus myosuroides), Italian ryegrass (Lolium multiflorum), winter wheat (Triticum aestivum), galium (catchweed bedstraw, Galium aparine), corn (Zea mays), large (Lg) crabgrass (Digitaria sanguinalis), giant foxtail (Setaria faberii), johnsongrass (Sorghum halepense), lambsquarters (Chenopodium album), morningglory (Ipomoea coccinea), yellow nutsedge (Cyperus esculentus), pigweed (Amaranthus retroflexus), ragweed (common ragweed, Ambrosia elatior), soybean (Glycine max), barnyardgrass (Echinochloa crus-galli), oilseed rape (Brassica napus), waterhemp (common waterhemp, Amaranthus rudis), and velvetleaf (Abutilon theophrasti) were planted into a blend of loam soil and sand and treated preemergence with test chemicals formulated in a non-phytotoxic solvent mixture which included a surfactant. At the same time, plants selected from these crop and weed species and also chickweed (common chickweed, Stellaria media), kochia (Kochia scoparia), and wild oat (Avena fatua), were planted in pots containing Sunshine Redi-Earth® planting medium comprising spaghnum peat moss, vermiculite, starter nutrients and dolomitic limestone and treated with postemergence applications of test chemicals formulated in the same manner. Plants ranged in height from 2 to 18 cm (1- to 4-leaf stage) for postemergence treatments. Treated plants and controls were maintained in a greenhouse for 13 to 15 days, after which time all species were compared to controls and visually evaluated. Plant response ratings, summarized in Table C, are based on a scale of 0 to 100 where 0 is no effect and 100 is complete control. A dash (-) response means no test result."}, "[4]": {"tested_on": "Italian ryegrass (Lolium multiflorum)", "experiment": "Test C preemergence", "conditions": "scale 0 to 100, 0 is no effect, 100 is complete control", "text": "as §2"}, "corn (Zea mays)": {"tested_on": "corn (Zea mays)", "experiment": "Test C preemergence", "conditions": "scale 0 to 100, 0 is no effect, 100 is complete control", "text": "as §2"}, "[5]": {"tested_on": "large (Lg) crabgrass (Digitaria sanguinalis)", "experiment": "Test C preemergence", "conditions": "scale 0 to 100, 0 is no effect, 100 is complete control", "text": "as §2"}, "[6]": {"tested_on": "pigweed (Amaranthus retroflexus)", "experiment": "Test C preemergence", "conditions": "scale 0 to 100, 0 is no effect, 100 is complete control", "text": "as §2"}, "[7]": {"tested_on": "yellow nutsedge (Cyperus esculentus)", "experiment": "Test C preemergence", "conditions": "scale 0 to 100, 0 is no effect, 100 is complete control", "text": "as §2"}, "[8]": {"tested_on": "oilseed rape (Brassica napus)", "experiment": "Test C preemergence", "conditions": "scale 0 to 100, 0 is no effect, 100 is complete control", "text": "as §2"}, "[9]": {"tested_on": "morningglory (Ipomoea coccinea)", "experiment": "Test C preemergence", "conditions": "scale 0 to 100, 0 is no effect, 100 is complete control", "text": "as §2"}, "[10]": {"tested_on": "winter wheat (Triticum aestivum)", "experiment": "Test C preemergence", "conditions": "scale 0 to 100, 0 is no effect, 100 is complete control", "text": "as §2"}, "[11]": {"tested_on": "galium (catchweed bedstraw, Galium aparine)", "experiment": "Test C preemergence", "conditions": "scale 0 to 100, 0 is no effect, 100 is complete control", "text": "as §2"}, "[12]": {"tested_on": "johnsongrass (Sorghum halepense)", "experiment": "Test C preemergence", "conditions": "scale 0 to 100, 0 is no effect, 100 is complete control", "text": "as §2"}, "[13]": {"tested_on": "barnyardgrass (Echinochloa crus-galli)", "experiment": "Test C preemergence", "conditions": "scale 0 to 100, 0 is no effect, 100 is complete control", "text": "as §2"}, "[14]": {"tested_on": "waterhemp (common waterhemp, Amaranthus rudis)", "experiment": "Test C preemergence", "conditions": "scale 0 to 100, 0 is no effect, 100 is complete control", "text": "as §2"}, "soybean (Glycine max)": {"tested_on": "soybean (Glycine max)", "experiment": "Test C preemergence", "conditions": "scale 0 to 100, 0 is no effect, 100 is complete control", "text": "as §2"}, "[15]": {"tested_on": "lambsquarters (Chenopodium album)", "experiment": "Test C preemergence", "conditions": "scale 0 to 100, 0 is no effect, 100 is complete control", "text": "as §2"}, "[16]": {"tested_on": "velvetleaf (Abutilon theophrasti)", "experiment": "Test C preemergence", "conditions": "scale 0 to 100, 0 is no effect, 100 is complete control", "text": "as §2"}, "[17]": {"tested_on": "ragweed (common ragweed, Ambrosia elatior)", "experiment": "Test C preemergence", "conditions": "scale 0 to 100, 0 is no effect, 100 is complete control", "text": "as §2"}, "[18]": {"tested_on": "giant foxtail (Setaria faberii)", "experiment": "Test C preemergence", "conditions": "scale 0 to 100, 0 is no effect, 100 is complete control", "text": "as §2"}}}
{"smiles": "O=c1cccc(Oc2ncc(Cl)cn2)n1-c1ncc(Cl)cn1", "note": "[Compound 6]", "values": [{"measurement": "Plant response rating, Barnyardgrass", "setting": "[1]", "result": 0}, {"measurement": "Plant response rating, Ducksalad", "setting": "[2]", "result": 80}, {"measurement": "Plant response rating, Blackgrass", "setting": "[3]; 16 g ai/ha", "result": 0}, {"measurement": "Plant response rating, Blackgrass", "setting": "[3]; 31 g ai/ha", "result": 0}, {"measurement": "Plant response rating, Blackgrass", "setting": "[3]; 62 g ai/ha", "result": 5}, {"measurement": "Plant response rating, Blackgrass", "setting": "[3]; 125 g ai/ha", "result": 5}, {"measurement": "Plant response rating, Ryegrass, Italian", "setting": "[4]; 16 g ai/ha", "result": 0}, {"measurement": "Plant response rating, Ryegrass, Italian", "setting": "[4]; 31 g ai/ha", "result": 5}, {"measurement": "Plant response rating, Ryegrass, Italian", "setting": "[4]; 62 g ai/ha", "result": 5}, {"measurement": "Plant response rating, Ryegrass, Italian", "setting": "[4]; 125 g ai/ha", "result": 5}, {"measurement": "Plant response rating, Corn", "setting": "corn (Zea mays); 16 g ai/ha", "result": 0}, {"measurement": "Plant response rating, Corn", "setting": "corn (Zea mays); 31 g ai/ha", "result": 5}, {"measurement": "Plant response rating, Corn", "setting": "corn (Zea mays); 62 g ai/ha", "result": 0}, {"measurement": "Plant response rating, Corn", "setting": "corn (Zea mays); 125 g ai/ha", "result": 5}, {"measurement": "Plant response rating, Crabgrass, Large", "setting": "[5]; 16 g ai/ha", "result": 5}, {"measurement": "Plant response rating, Crabgrass, Large", "setting": "[5]; 31 g ai/ha", "result": 50}, {"measurement": "Plant response rating, Crabgrass, Large", "setting": "[5]; 62 g ai/ha", "result": 90}, {"measurement": "Plant response rating, Crabgrass, Large", "setting": "[5]; 125 g ai/ha", "result": 100}, {"measurement": "Plant response rating, Pigweed", "setting": "[6]; 16 g ai/ha", "result": 55}, {"measurement": "Plant response rating, Pigweed", "setting": "[6]; 31 g ai/ha", "result": 75}, {"measurement": "Plant response rating, Pigweed", "setting": "[6]; 62 g ai/ha", "result": 90}, {"measurement": "Plant response rating, Pigweed", "setting": "[6]; 125 g ai/ha", "result": 100}, {"measurement": "Plant response rating, Nutsedge, Yellow", "setting": "[7]; 16 g ai/ha", "result": 0}, {"measurement": "Plant response rating, Nutsedge, Yellow", "setting": "[7]; 31 g ai/ha", "result": 0}, {"measurement": "Plant response rating, Nutsedge, Yellow", "setting": "[7]; 62 g ai/ha", "result": 0}, {"measurement": "Plant response rating, Nutsedge, Yellow", "setting": "[7]; 125 g ai/ha", "result": 5}, {"measurement": "Plant response rating, Oilseed Rape", "setting": "[8]; 16 g ai/ha", "result": 30}, {"measurement": "Plant response rating, Oilseed Rape", "setting": "[8]; 31 g ai/ha", "result": 90}, {"measurement": "Plant response rating, Oilseed Rape", "setting": "[8]; 62 g ai/ha", "result": 98}, {"measurement": "Plant response rating, Oilseed Rape", "setting": "[8]; 125 g ai/ha", "result": 98}, {"measurement": "Plant response rating, Morningglory", "setting": "[9]; 16 g ai/ha", "result": 5}, {"measurement": "Plant response rating, Morningglory", "setting": "[9]; 31 g ai/ha", "result": 5}, {"measurement": "Plant response rating, Morningglory", "setting": "[9]; 62 g ai/ha", "result": 20}, {"measurement": "Plant response rating, Morningglory", "setting": "[9]; 125 g ai/ha", "result": 55}, {"measurement": "Plant response rating, Wheat", "setting": "[10]; 16 g ai/ha", "result": 0}, {"measurement": "Plant response rating, Wheat", "setting": "[10]; 31 g ai/ha", "result": 0}, {"measurement": "Plant response rating, Wheat", "setting": "[10]; 62 g ai/ha", "result": 5}, {"measurement": "Plant response rating, Wheat", "setting": "[10]; 125 g ai/ha", "result": 0}, {"measurement": "Plant response rating, Galium", "setting": "[11]; 16 g ai/ha", "result": 80}, {"measurement": "Plant response rating, Galium", "setting": "[11]; 31 g ai/ha", "result": 90}, {"measurement": "Plant response rating, Galium", "setting": "[11]; 62 g ai/ha", "result": 90}, {"measurement": "Plant response rating, Galium", "setting": "[11]; 125 g ai/ha", "result": 90}, {"measurement": "Plant response rating, Johnsongrass", "setting": "[12]; 16 g ai/ha", "result": 0}, {"measurement": "Plant response rating, Johnsongrass", "setting": "[12]; 31 g ai/ha", "result": 0}, {"measurement": "Plant response rating, Johnsongrass", "setting": "[12]; 62 g ai/ha", "result": 5}, {"measurement": "Plant response rating, Johnsongrass", "setting": "[12]; 125 g ai/ha", "result": 10}, {"measurement": "Plant response rating, Barnyardgrass", "setting": "[13]; 16 g ai/ha", "result": 0}, {"measurement": "Plant response rating, Barnyardgrass", "setting": "[13]; 31 g ai/ha", "result": 5}, {"measurement": "Plant response rating, Barnyardgrass", "setting": "[13]; 62 g ai/ha", "result": 10}, {"measurement": "Plant response rating, Barnyardgrass", "setting": "[13]; 125 g ai/ha", "result": 40}, {"measurement": "Plant response rating, Waterhemp", "setting": "[14]; 16 g ai/ha", "result": 75}, {"measurement": "Plant response rating, Waterhemp", "setting": "[14]; 31 g ai/ha", "result": 90}, {"measurement": "Plant response rating, Waterhemp", "setting": "[14]; 62 g ai/ha", "result": 100}, {"measurement": "Plant response rating, Waterhemp", "setting": "[14]; 125 g ai/ha", "result": 100}, {"measurement": "Plant response rating, Soybean", "setting": "soybean (Glycine max); 16 g ai/ha", "result": 10}, {"measurement": "Plant response rating, Soybean", "setting": "soybean (Glycine max); 31 g ai/ha", "result": 20}, {"measurement": "Plant response rating, Soybean", "setting": "soybean (Glycine max); 125 g ai/ha", "result": 75}, {"measurement": "Plant response rating, Lambsquarters", "setting": "[15]; 16 g ai/ha", "result": 40}, {"measurement": "Plant response rating, Lambsquarters", "setting": "[15]; 31 g ai/ha", "result": 30}, {"measurement": "Plant response rating, Lambsquarters", "setting": "[15]; 62 g ai/ha", "result": 65}, {"measurement": "Plant response rating, Lambsquarters", "setting": "[15]; 125 g ai/ha", "result": 85}, {"measurement": "Plant response rating, Velvetleaf", "setting": "[16]; 16 g ai/ha", "result": 10}, {"measurement": "Plant response rating, Velvetleaf", "setting": "[16]; 31 g ai/ha", "result": 25}, {"measurement": "Plant response rating, Velvetleaf", "setting": "[16]; 62 g ai/ha", "result": 40}, {"measurement": "Plant response rating, Velvetleaf", "setting": "[16]; 125 g ai/ha", "result": 80}, {"measurement": "Plant response rating, Ragweed", "setting": "[17]; 16 g ai/ha", "result": 25}, {"measurement": "Plant response rating, Ragweed", "setting": "[17]; 31 g ai/ha", "result": 25}, {"measurement": "Plant response rating, Ragweed", "setting": "[17]; 62 g ai/ha", "result": 70}, {"measurement": "Plant response rating, Ragweed", "setting": "[17]; 125 g ai/ha", "result": 85}, {"measurement": "Plant response rating, Foxtail, Giant", "setting": "[18]; 16 g ai/ha", "result": 0}, {"measurement": "Plant response rating, Foxtail, Giant", "setting": "[18]; 31 g ai/ha", "result": 5}, {"measurement": "Plant response rating, Foxtail, Giant", "setting": "[18]; 62 g ai/ha", "result": 70}, {"measurement": "Plant response rating, Foxtail, Giant", "setting": "[18]; 125 g ai/ha", "result": 100}]}
